The numbers were not newly measured in patent publication US10751294B1, “Development of an optimized avanafil-loaded invasomal transdermal film” (King Abdulaziz University, priority 2019, dated 2020), which cites them from elsewhere.

Read-outs that look alike come from different tables or passages of the source.

Assay in data set [1]: not given
The source holds these as a separate data set.

The conditions of data set [2]: in water, methanol, and ethanol at 25° C.
Assay in data set [3]: not given
This is another data set of the same source.

One may read the log P as the decadic logarithm of the partition coefficient of the neutral form, usually between octanol and water. In general, solubility refers to the dissolved amount per volume that the medium holds. Consider `COc1ccc(CN=c2[nH]c(N3CCC[C@H]3CO)ncc2C(=O)NCc2ncccn2)cc1Cl` [AVA, Avanafil], for which the “pKa (acidic)” value is on record as 11.84 and the “pKa (basic)” value is given as 5.89. Also, the “log P” value in data set [1] was 1.84. Besides, the solubility in data set [2] is < 1000 µg/mL.
Turning to `O=C(O)CN(CC(=O)O)Cc1cc2c(cc1O)Oc1cc(O)c(CN(CC(=O)O)CC(=O)O)cc1C21OC(=O)c2ccccc21` [calcein], the “drug permeation enhanced (fold)” value in data set [3] (from invasomes) is 7.2 fold; in data set [3] (from transfersomes), 1.8 fold.
